Data on one molecule can be found in article PMC9120478 (Nature Communications, 2022).

One data set has as its target T1, wild-type mouse TRPV3 (Mus musculus, UniProt Q8K424).
T1 construct: expressed in transfected cells; host or cells: HEK 293 S GnTI- cells (baculovirus transduction)
T1 sequence (Q8K424 1-791): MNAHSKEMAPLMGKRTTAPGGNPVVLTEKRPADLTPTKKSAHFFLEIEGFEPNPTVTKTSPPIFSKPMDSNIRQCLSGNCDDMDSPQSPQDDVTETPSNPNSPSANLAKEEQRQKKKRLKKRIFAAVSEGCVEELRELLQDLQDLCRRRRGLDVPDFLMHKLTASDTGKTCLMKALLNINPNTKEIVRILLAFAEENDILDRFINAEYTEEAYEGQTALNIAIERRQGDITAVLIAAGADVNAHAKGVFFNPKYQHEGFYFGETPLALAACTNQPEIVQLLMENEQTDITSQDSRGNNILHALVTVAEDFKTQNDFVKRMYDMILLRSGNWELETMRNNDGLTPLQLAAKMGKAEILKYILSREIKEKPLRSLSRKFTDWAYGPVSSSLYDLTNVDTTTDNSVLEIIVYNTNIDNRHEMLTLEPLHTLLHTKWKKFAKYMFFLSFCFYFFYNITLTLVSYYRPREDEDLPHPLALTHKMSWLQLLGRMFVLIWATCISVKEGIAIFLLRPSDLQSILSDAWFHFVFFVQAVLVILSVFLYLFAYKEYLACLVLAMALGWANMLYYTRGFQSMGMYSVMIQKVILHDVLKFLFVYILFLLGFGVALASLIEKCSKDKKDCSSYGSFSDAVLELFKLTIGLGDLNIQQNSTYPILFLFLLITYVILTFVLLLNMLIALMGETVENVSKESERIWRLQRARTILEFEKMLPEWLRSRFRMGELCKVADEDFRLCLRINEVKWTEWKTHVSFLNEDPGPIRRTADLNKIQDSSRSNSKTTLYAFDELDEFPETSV
Description: Fura-2 ratiometric Ca2+ uptake, inhibition of 2-APB-evoked response. It is filed as cell-based. How it is done:
GFP-free C-terminally strep-tagged wild-type TRPV3, TRPV3-Y564A, TRPV3-Y594A, TRPV3-F633A, TRPV3-I663W, and TRPV3-F666A were expressed in HEK 293 S GnTI^− cells as previously described[41],[42],[53]. In short, 48 h after transduction, 1-ml aliquots of cell suspension were collected by centrifugation at 550 g for 5 min using an Eppendorf 5424 centrifuge. The cells were resuspended in the pre-warmed modified HEPES-buffered saline (HBS) containing 118 mM NaCl, 4.8 mM KCl, 1 mM MgCl2, 5 mM D-glucose, and 10 mM HEPES pH 7.4 and 5 μg/ml Fura-2 AM (Thermo Fisher Scientific) and incubated for 45 min at 37 °C. The Fura-2-loaded cells were then centrifuged for 5 min at 550 g, resuspended in the pre-warmed, modified HBS and incubated again for 30 min at 37 °C in the dark. The cells were subsequently pelleted and washed twice in the modified HBS. The washed cell pellets were kept on ice in the dark before taking an aliquot for fluorescence measurements. […] We used the lower CaCl2 concentration than before[42],[28] (2.5 mM) to minimize non-specific effects, which often appeared as a drift in the Fura-2 signal at high Ca^2+ concentration, presumably due to cell death as a result of calcium overload. Fluorescence measurements were conducted using a QuantaMaster 40 spectrofluorometer (Photon Technology International) at room temperature in a quartz cuvette under constant stirring. After 60 s since the beginning, the recording was paused and 2-APB was added. After the addition of 2-APB, the recording was continued for the additional 140 s. Changes in intracellular Ca^2+ were measured by taking the ratio of fluorescence emitted at 510 nm at the excitation wavelength of 340 nm and 380 nm. […] The data were processed using Origin 9.0 (OriginLab) software.

The conditions of data set [1]: no reference given; cited from earlier work.
The target in the next data set is T2, TRPV3-Y564A (Mus musculus, UniProt Q8K424, Y564A).
T2 construct: expressed in transfected cells; host or cells: HEK 293 S GnTI- cells (baculovirus transduction)
T2 sequence (Q8K424 1-791 Y564A): T1 sequence (Q8K424 1-791) with Y564A
Description: Fura-2 ratiometric Ca2+ uptake, inhibition of 2-APB-evoked response. It is filed as cell-based. How it is done: The Y564A mutation increases affinity to the TRPV3 agonist 2-APB[42] and decreases affinity to the competitive antagonist osthole.
GFP-free C-terminally strep-tagged wild-type TRPV3, TRPV3-Y564A, TRPV3-Y594A, TRPV3-F633A, TRPV3-I663W, and TRPV3-F666A were expressed in HEK 293 S GnTI^− cells as previously described[41],[42],[53]. In short, 48 h after transduction, 1-ml aliquots of cell suspension were collected by centrifugation at 550 g for 5 min using an Eppendorf 5424 centrifuge. The cells were resuspended in the pre-warmed modified HEPES-buffered saline (HBS) containing 118 mM NaCl, 4.8 mM KCl, 1 mM MgCl2, 5 mM D-glucose, and 10 mM HEPES pH 7.4 and 5 μg/ml Fura-2 AM (Thermo Fisher Scientific) and incubated for 45 min at 37 °C. The Fura-2-loaded cells were then centrifuged for 5 min at 550 g, resuspended in the pre-warmed, modified HBS and incubated again for 30 min at 37 °C in the dark. […] The washed cell pellets were kept on ice in the dark before taking an aliquot for fluorescence measurements. […] Fluorescence measurements were conducted using a QuantaMaster 40 spectrofluorometer (Photon Technology International) at room temperature in a quartz cuvette under constant stirring. […] Changes in intracellular Ca^2+ were measured by taking the ratio of fluorescence emitted at 510 nm at the excitation wavelength of 340 nm and 380 nm. […]

A further data set has as its system TRPV3. As to conditions: cited from earlier work.

Positions count from the first letter of the chain named.

As usually defined, the IC50 is the point on the concentration scale where inhibition reaches its midpoint. The term pKa denotes the negative logarithm of the acid dissociation constant. `CCCCOc1ccc(C(=O)CCN2CCCCC2)cc1` [dyclonine, 1-(4-butoxyphenyl)-3-piperidin-1-ylpropan-1-one]: the “nHill of inhibition curve” value at wild-type mouse TRPV3 (logistic fit, 200 µM 2-APB, n = 7) is reported as 1.61 ± 0.27. Besides, the IC50 at wild-type mouse TRPV3 (read-out: IC50, inhibition of TRPV3-mediated Ca2+ uptake) came out at 29.8 ± 5.3 µM; at TRPV3-Y564A (200 µM 2-APB, n = 4, negative control mutant) it was 31.5 ± 1 µM. In addition, in data set [1], the pKa is 8.36. In addition, on TRPV3-Y564A (logistic fit, n = 4), the “nHill of inhibition curve, Y564A” value came to 2.33 ± 0.11. Further, the temperature-dependence of inhibition entry with TRPV3 (TRPV3 activation by an infrared laser) is on record as “lack of temperature-dependence”. The “effect on TRPV3 currents evoked by heat” value in the data set on TRPV3 is recorded as “inhibits”. Besides, the “voltage-dependence of TRPV3 inhibition” value in the data set on TRPV3 is reported as “no voltage-dependence”.
